Reference: PubChem BioAssay AID1918998 (Molecular Pharmacology Branch, DTP, NCI, 2023)

Test system: 521955-158-R2-J5-PDC complex spheroid growth
Experiment: Anticancer human tumor 521955-158-R2-J5-PDC patient-derived pancreatic carcinoma cell line growth inhibition [AhR]
Settings: for IC50: curve of first compound; for viability, T/C: stronger effect = lower value
In short: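 Agents were dosed in half-log steps down from roughly clinical Cmax, or from 10 microM where Cmax was unknown, alone and with AhR antagonists. Read-out: percent test/control growth of tumor spheroids containing HUVEC and MSC stromal cells.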

[1] = second compound 0.1 µM, first compound 0.0316 µM
[2] = second compound 0.1 µM, first compound 0.1 µM
[3] = second compound 0.1 µM, first compound 0.316 µM
[4] = second compound 0.1 µM, first compound 1 µM
[5] = second compound 0.1 µM, first compound 3.16 µM
[6] = second compound 0.1 µM, first compound 10 µM
[7] = second compound 0.316 µM, first compound 0.0316 µM
[8] = second compound 0.316 µM, first compound 0.1 µM
[9] = second compound 0.316 µM, first compound 0.316 µM
[10] = second compound 0.316 µM, first compound 1 µM
[11] = second compound 0.316 µM, first compound 3.16 µM
[12] = second compound 0.316 µM, first compound 10 µM
[13] = second compound 1 µM, first compound 0.0316 µM
[14] = second compound 1 µM, first compound 0.1 µM
[15] = second compound 1 µM, first compound 0.316 µM
[16] = second compound 1 µM, first compound 1 µM
[17] = second compound 1 µM, first compound 3.16 µM
[18] = second compound 1 µM, first compound 10 µM
[19] = second compound 3.16 µM, first compound 0.0316 µM
[20] = second compound 3.16 µM, first compound 0.1 µM
[21] = second compound 3.16 µM, first compound 0.316 µM
[22] = second compound 3.16 µM, first compound 1 µM
[23] = second compound 3.16 µM, first compound 3.16 µM
[24] = second compound 3.16 µM, first compound 10 µM
[25] = second compound 10 µM, first compound 0.0316 µM
[26] = second compound 10 µM, first compound 0.1 µM
[27] = second compound 10 µM, first compound 0.316 µM
[28] = second compound 10 µM, first compound 1 µM
[29] = second compound 10 µM, first compound 3.16 µM
[30] = second compound 10 µM, first compound 10 µM
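Wherever viability, T/C is given: spheroids mix tumor cells with HUVEC endothelium and human MSC stroma; luminescence taken as viability surrogate after a week of drug exposure.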

`CC1(C)CCC(CN2CCN(c3ccc(C(=O)NS(=O)(=O)c4ccc(NCC5CCOCC5)c([N+](=O)[O-])c4)c(Oc4cnc5[nH]ccc5c4)c3)CC2)=C(c2ccc(Cl)cc2)C1` + Cc1cncc(-c2nc(NCCc3c[nH]c4ccccc34)c3ncn(C(C)C)c3n2)c1 showed an IC50 (second compound 0.1 µM) of over 10000 nM, an IC50 (second compound 0.316 µM) of over 10000 nM and an IC50 (second compound 1 µM) of over 10000 nM. The IC50 (second compound 3.16 µM) was over 10000 nM, the IC50 (second compound 10 µM) was over 10000 nM and the viability, T/C [1] was 110%. It also gave a viability, T/C [2] of 111%, a viability, T/C [3] of 102% and a viability, T/C [4] of 104%. It also gave a viability, T/C [5] of 92.8%, a viability, T/C [6] of 74.7% and a viability, T/C [7] of 104%. It also gave a viability, T/C [8] of 109%, a viability, T/C [9] of 119% and a viability, T/C [10] of 105%. It also gave a viability, T/C [11] of 99.9%, a viability, T/C [12] of 79.5% and a viability, T/C [13] of 111%. For the same compound, the viability, T/C [14] was 124%, the viability, T/C [15] was 121% and the viability, T/C [16] was 111%. For the same compound, the viability, T/C [17] was 111%, the viability, T/C [18] was 76.3% and the viability, T/C [19] was 146%. It also gave a viability, T/C [20] of 123%, a viability, T/C [21] of 133% and a viability, T/C [22] of 120%. For the same compound, the viability, T/C [23] was 113%, the viability, T/C [24] was 94.9% and the viability, T/C [25] was 148%. The viability, T/C [26] was 147%, the viability, T/C [27] was 138% and the viability, T/C [28] was 156%. For the same compound, the viability, T/C [29] was 118% and the viability, T/C [30] was 102%.

`CCN(c1cc(-c2ccc(CN3CCOCC3)cc2)cc(C(=O)NCc2c(C)cc(C)[nH]c2=O)c1C)C1CCOCC1` + Cc1cncc(-c2nc(NCCc3c[nH]c4ccccc34)c3ncn(C(C)C)c3n2)c1 gave an IC50 (second compound 0.1 µM) of over 3000 nM, an IC50 (second compound 0.316 µM) of over 3000 nM and an IC50 (second compound 1 µM) of over 3000 nM. The IC50 (second compound 3.16 µM) was over 3000 nM, the IC50 (second compound 10 µM) was over 3000 nM and the viability, T/C (second compound 0.1 µM, first compound 0.00949 µM) was 118%. The viability, T/C (second compound 0.1 µM, first compound 0.03 µM) was 112%, the viability, T/C (second compound 0.1 µM, first compound 0.0949 µM) was 124% and the viability, T/C (second compound 0.1 µM, first compound 0.3 µM) was 94.7%. It also gave a viability, T/C (second compound 0.1 µM, first compound 0.949 µM) of 117%, a viability, T/C (second compound 0.1 µM, first compound 3 µM) of 95.9% and a viability, T/C (second compound 0.316 µM, first compound 0.00949 µM) of 99.5%. For the same compound, the viability, T/C (second compound 0.316 µM, first compound 0.03 µM) was 108%, the viability, T/C (second compound 0.316 µM, first compound 0.0949 µM) was 106% and the viability, T/C (second compound 0.316 µM, first compound 0.3 µM) was 109%. The viability, T/C (second compound 0.316 µM, first compound 0.949 µM) was 110%, the viability, T/C (second compound 0.316 µM, first compound 3 µM) was 104% and the viability, T/C (second compound 1 µM, first compound 0.00949 µM) was 125%. The viability, T/C (second compound 1 µM, first compound 0.03 µM) was 130%, the viability, T/C (second compound 1 µM, first compound 0.0949 µM) was 122% and the viability, T/C (second compound 1 µM, first compound 0.3 µM) was 118%. The viability, T/C (second compound 1 µM, first compound 0.949 µM) was 99.6%, the viability, T/C (second compound 1 µM, first compound 3 µM) was 115% and the viability, T/C (second compound 3.16 µM, first compound 0.00949 µM) was 158%. The viability, T/C (second compound 3.16 µM, first compound 0.03 µM) was 133%, the viability, T/C (second compound 3.16 µM, first compound 0.0949 µM) was 130% and the viability, T/C (second compound 3.16 µM, first compound 0.3 µM) was 148%. For the same compound, the viability, T/C (second compound 3.16 µM, first compound 0.949 µM) was 110%, the viability, T/C (second compound 3.16 µM, first compound 3 µM) was 124% and the viability, T/C (second compound 10 µM, first compound 0.00949 µM) was 112%. For the same compound, the viability, T/C (second compound 10 µM, first compound 0.03 µM) was 140%, the viability, T/C (second compound 10 µM, first compound 0.0949 µM) was 111% and the viability, T/C (second compound 10 µM, first compound 0.3 µM) was 116%. For the same compound, the viability, T/C (second compound 10 µM, first compound 0.949 µM) was 84.2% and the viability, T/C (second compound 10 µM, first compound 3 µM) was 72.3%.

`Cn1ncnc1C1c2n[nH]c(=O)c3cc(F)cc(c23)NC1c1ccc(F)cc1` (stereo not given) + Cc1cncc(-c2nc(NCCc3c[nH]c4ccccc34)c3ncn(C(C)C)c3n2)c1 gave an IC50 (second compound 0.1 µM) of over 100 nM, an IC50 (second compound 0.316 µM) of over 100 nM and an IC50 (second compound 1 µM) of over 100 nM. It also gave an IC50 (second compound 3.16 µM) of over 100 nM, an IC50 (second compound 10 µM) of over 100 nM and a viability, T/C (second compound 0.1 µM, first compound 0.000316 µM) of 114%. For the same compound, the viability, T/C (second compound 0.1 µM, first compound 0.001 µM) was 106%, the viability, T/C (second compound 0.1 µM, first compound 0.00316 µM) was 94.6% and the viability, T/C (second compound 0.1 µM, first compound 0.01 µM) was 109%. The viability, T/C [1] was 93%, the viability, T/C [2] was 83% and the viability, T/C (second compound 0.316 µM, first compound 0.000316 µM) was 105%. The viability, T/C (second compound 0.316 µM, first compound 0.001 µM) was 121%, the viability, T/C (second compound 0.316 µM, first compound 0.00316 µM) was 93.3% and the viability, T/C (second compound 0.316 µM, first compound 0.01 µM) was 110%. It also gave a viability, T/C [7] of 87.6%, a viability, T/C [8] of 101% and a viability, T/C (second compound 1 µM, first compound 0.000316 µM) of 122%. For the same compound, the viability, T/C (second compound 1 µM, first compound 0.001 µM) was 117%, the viability, T/C (second compound 1 µM, first compound 0.00316 µM) was 116% and the viability, T/C (second compound 1 µM, first compound 0.01 µM) was 127%. The viability, T/C [13] was 116%, the viability, T/C [14] was 99.5% and the viability, T/C (second compound 3.16 µM, first compound 0.000316 µM) was 114%. It also gave a viability, T/C (second compound 3.16 µM, first compound 0.001 µM) of 142%, a viability, T/C (second compound 3.16 µM, first compound 0.00316 µM) of 115% and a viability, T/C (second compound 3.16 µM, first compound 0.01 µM) of 119%. The viability, T/C [19] was 122%, the viability, T/C [20] was 107% and the viability, T/C (second compound 10 µM, first compound 0.000316 µM) was 134%. It also gave a viability, T/C (second compound 10 µM, first compound 0.001 µM) of 143%, a viability, T/C (second compound 10 µM, first compound 0.00316 µM) of 106% and a viability, T/C (second compound 10 µM, first compound 0.01 µM) of 105%. It also gave a viability, T/C [25] of 111% and a viability, T/C [26] of 104%.

Work on `NS(=O)(=O)OCC1CC(n2ccc3c(NC4CCc5ccccc54)ncnc32)CC1O` (stereo not given) + Cc1cncc(-c2nc(NCCc3c[nH]c4ccccc34)c3ncn(C(C)C)c3n2)c1 yielded an IC50 (second compound 0.1 µM) of 968 nM, an IC50 (second compound 0.316 µM) of 1170 nM and an IC50 (second compound 1 µM) of 1250 nM. The IC50 (second compound 3.16 µM) was 1240 nM, the IC50 (second compound 10 µM) was 68.3 nM and the viability, T/C [1] was 106%. It also gave a viability, T/C [2] of 103%, a viability, T/C [3] of 80.1% and a viability, T/C [4] of 47.9%. It also gave a viability, T/C [5] of 40.1%, a viability, T/C [6] of 30.1% and a viability, T/C [7] of 105%. It also gave a viability, T/C [8] of 102%, a viability, T/C [9] of 78.5% and a viability, T/C [10] of 53.4%. For the same compound, the viability, T/C [11] was 35.6%, the viability, T/C [12] was 30.4% and the viability, T/C [13] was 115%. The viability, T/C [14] was 105%, the viability, T/C [15] was 83.7% and the viability, T/C [16] was 52.1%. For the same compound, the viability, T/C [17] was 38%, the viability, T/C [18] was 32.1% and the viability, T/C [19] was 99.4%. The viability, T/C [20] was 102%, the viability, T/C [21] was 75.2% and the viability, T/C [22] was 52.6%. It also gave a viability, T/C [23] of 45%, a viability, T/C [24] of 35.2% and a viability, T/C [25] of 65.5%. It also gave a viability, T/C [26] of 40.6%, a viability, T/C [27] of 34.4% and a viability, T/C [28] of 32.7%. For the same compound, the viability, T/C [29] was 28.7% and the viability, T/C [30] was 23.9%.
